In US20250289789A1, “REVERSIBLE LYSINE COVALENT MODIFIERS OF CDK2 AND USES THEREOF” (Terremoto Biosciences, Inc., priority 2023, published 2025):
Like-named read-outs stand apart in the source and are kept apart here.

Key:
Assay type in all cases: cell-based
[1] = test system: Phospho-Rb Ser807/811 in OVCAR3 cells; test: OVCAR3 Phospho-Rb Ser807/811 HTRF assay; settings: OVCAR3 cells, Phospho-Rb Ser807/811 HTRF, 1 hour incubation, read-out: pRb-OVCAR3 IC50
Protocol: Cells were trypsinized and resuspended in 1 mM hydroxyurea (Sigma; H8627), 90% RPMI and 10% fetal bovine serum. […] Dose response curve normalized to DMSO control was plotted using four-parameter logistic model for IC50 calculation.

[2] = molecular target: T1, CDK2-NanoLuc fusion with CCNE1 in 293T or 293 cells (Homo sapiens, UniProt P24941); test: NanoBRET Target Engagement (TE) Intracellular Kinase Assay, CDK2/CCNE1; settings: NanoBRET TE intracellular kinase assay, 2-hour incubation, read-out: NanoBRET-CDK2/E1 IC50
T1 construct: host or cells: 293T (ATCC CRL-3216) or 293 (ATCC CRL-1573)
Protocol: (§1) Inhibitory effects of compounds were measured in NanoBRET TE Intracellular Kinase Assay. […] Cells were co-transfected with 1 μg/mL of CDK-NanoLuc Fusion Vector (Promega; NV2701 for CDK1, NV2781 for CDK2, NV2811 for CDK4, NV2841 for CDK6) and 1 μg/mL of the corresponding Cyclin Expression Vector (Promega; NV2601 for CCNB1, NV2641 for CCNE1, NV2621 for CCND1, NV2631 for CCND3) using FuGENE HD Transfection Reagent (Promega; E2311). […] 20 uL/well of 3× Intracellular TE Nano-Glo Substrate/Inhibitor (Promega; N2162) were added to 384-well plates and incubated for 3 minutes at room temperature. NanoBRET signals (donor emission wavelength at 450 nm, acceptor emission wavelength at 610 nm) were measured using Envision plate reader (PerkinElmer). NanoBRET ratio was calculated by: BRET Ratio=raw signal for acceptor/raw signal for donor. Dose response curve normalized to DMSO control was plotted using four-parameter logistic model for IC50 calculation.

[3] = molecular target: T2, CDK4-NanoLuc fusion with CCND1 in 293T or 293 cells (Homo sapiens, UniProt P11802); test: NanoBRET Target Engagement (TE) Intracellular Kinase Assay, CDK4/CCND1; settings: NanoBRET TE intracellular kinase assay, 2-hour incubation, read-out: NanoBRET-CDK4/D1 IC50
T2 construct: host or cells: 293T (ATCC CRL-3216) or 293 (ATCC CRL-1573)
Protocol: as §1

T2 sequence (P11802 whole entry, the tested form may be a part): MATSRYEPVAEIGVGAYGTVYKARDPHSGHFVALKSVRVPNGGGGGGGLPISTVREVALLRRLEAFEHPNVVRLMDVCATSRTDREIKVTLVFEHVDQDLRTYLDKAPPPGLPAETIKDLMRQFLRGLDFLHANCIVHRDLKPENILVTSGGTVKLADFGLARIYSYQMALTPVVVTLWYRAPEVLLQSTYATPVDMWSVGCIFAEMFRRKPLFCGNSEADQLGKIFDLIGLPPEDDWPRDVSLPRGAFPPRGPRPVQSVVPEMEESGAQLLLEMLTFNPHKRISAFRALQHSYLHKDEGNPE
T2 sequence (P24385 whole entry partner, the tested form may be a part): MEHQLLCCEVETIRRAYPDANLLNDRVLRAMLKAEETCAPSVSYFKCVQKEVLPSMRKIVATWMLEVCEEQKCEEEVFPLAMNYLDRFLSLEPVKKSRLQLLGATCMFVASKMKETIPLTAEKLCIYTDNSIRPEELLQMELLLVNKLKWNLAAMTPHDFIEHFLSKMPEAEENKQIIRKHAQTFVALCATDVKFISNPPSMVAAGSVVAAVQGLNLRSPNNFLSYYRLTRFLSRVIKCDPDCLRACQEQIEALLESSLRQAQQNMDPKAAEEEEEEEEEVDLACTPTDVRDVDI

Row | SMILES | IC50 ([1]; Homo sapiens, OVCAR-3, 1 h) [nM] | IC50 [2] [nM] | IC50 [3] [nM] | IC50 [1] [nM]
1 | COc1cc(O)c(C=O)c(OCC(=O)Nc2cc([C@H]3CC[C@@H](OC(=O)N4NC5CCC4C5)C3)[nH]n2)c1 (stereo partly drawn) [Compound 273, (1R,3S)-3-(3-(2-(2-formyl-3-hydroxy-5-methoxyphenoxy)acetamido)-1H-pyrazol-5-yl)cyclopentyl 2,3-diazabicyclo[2.2.1]heptane-2-carboxylate] | 29.5 | 2.38 | 5820 | 
2 | CC[C@H](C)NC(=O)O[C@@H]1CC[C@H](c2cc(NC(=O)COc3cc(OC)cc(O)c3C=O)n[nH]2)C1 [Compound 184] | 20.6 | 1.5 | 1450 | 
3 | O=Cc1c(O)cc(OC(F)F)cc1OCC(=O)Nc1cc([C@H]2CC[C@@H](OC(=O)N3C4COCC3C4)C2)[nH]n1 [Compound 186] | 105 | 22 | 6580 | 
4 | CNN(C)C(=O)O[C@@H]1CC[C@H](c2cc(NC(=O)COc3cc(OC)cc(O)c3C=O)n[nH]2)C1 [Compound 279, (1R,3S)-3-(3-(2-(2-formyl-3-hydroxy-5-methoxyphenoxy)acetamido)-1H-pyrazol-5-yl)cyclopentyl 1,2-dimethylhydrazine-1-carboxylate] | 63.9 | 4.32 | > 10000 | 
5 | COc1cc(O)c(C=O)c(OCC(=O)Nc2cc([C@H]3CC[C@@H](OC(=O)NC4(C(F)F)CC4)C3)[nH]n2)c1 [Compound 140, (1R,3S)-3-{5-[2-(2-formyl-3-hydroxy-5-methoxyphenoxy)acetamido]-2H-pyrazol-3-yl}cyclopentyl N-[1-(difluoromethyl)cyclopropyl]carbamate] | 16.1 | 2.82 | 1080 | 
6 | COc1cc(O)c(C=O)c(OCC(=O)Nc2cc([C@H]3CC[C@@H](OC(=O)NCCOC(F)(F)F)C3)n[nH]2)c1 [Compound 117] | 22 | 2.19 | 8090 | 
7 | COc1cc(O)c(C=O)c(OCC(=O)Nc2cc([C@H]3CC[C@@H](OC(=O)N4[C@H](C)C[C@@H]4C)C3)[nH]n2)c1 [Compound 123] | 27 | 2.62 | 2570 | 
8 | O=Cc1c(O)cc(Cl)cc1OCC(=O)Nc1cc([C@H]2CC[C@@H](OC(=O)N3C4COCC3C4)C2)[nH]n1 [Compound 183] | 140 | 10.1 | 4200 | 
9 | COc1cc(O)c(C=O)c(OCC(=O)Nc2cc([C@H]3CC[C@@H](OC(=O)NC4(C)CC4(F)F)C3)[nH]n2)c1 (single isomer, unassigned) [Compound 280, (1R,3S)-3-(3-(2-(2-formyl-3-hydroxy-5-methoxyphenoxy)acetamido)-1H-pyrazol-5-yl)cyclopentyl ((*)-2,2-difluoro-1-methylcyclopropyl)carbamate] | 17.4 | 3.88 | 576 | 
10 | COc1cc(O)c(C=O)c2c1CC(C(=O)Nc1cc([C@H]3CC[C@@H](OC(=O)NN(C)CC(F)(F)F)C3)[nH]n1)C2 (single isomer, unassigned) [Compound 265, (1R,3S)-3-(3-((*)-4-formyl-5-hydroxy-7-methoxy-2,3-dihydro-1H-indene-2-carboxamido)-1H-pyrazol-5-yl)cyclopentyl 2-methyl-2-(2,2,2-trifluoroethyl)hydrazine-1-carboxylate] |  | 15.5 | 132 | 567
11 | COc1cc(O)c(C=O)c(OCC(=O)Nc2cc([C@H]3CC[C@@H](OC(=O)NC4COC4)C3)[nH]n2)c1 [Compound 149] | 385 | 20.2 | > 10000 | 
12 | O=Cc1c(O)cc(F)cc1OCC(=O)Nc1cc([C@H]2CC[C@@H](OC(=O)N3C4COCC3C4)C2)[nH]n1 [Compound 192] | 88 | 24 | 5910 | 

More lines, now with the values ahead:

Row | IC50 ([1]; Homo sapiens, OVCAR-3, 1 h) [nM] | IC50 [2] [nM] | IC50 [3] [nM] | IC50 [1] [nM] | SMILES
13 | 75.7 | 9.62 | 7310 |  | COc1cc(O)c(C=O)c(OCC(=O)Nc2cc([C@H]3CC[C@@H](OC(=O)N4CC[C@H]4C#N)C3)[nH]n2)c1 (stereo in doubt) [Compound 126]
14 | 98.3 | 25.9 | 8530 |  | COc1cc(O)c(C=O)c(OCC(=O)Nc2cc([C@H]3CC[C@@H](OC(=O)NCC#N)C3)[nH]n2)c1 [Compound 127]
15 | 142 | 13.1 | > 10000 |  | COc1cc(O)c(C=O)c(OCC(=O)Nc2cc([C@H]3CC[C@@H](OC(=O)NC[C@H]4CCO4)C3)[nH]n2)c1 [Compound 143]
16 | 100 | 1.87 | 5500 |  | CCc1cc(O)c(C=O)c(OCC(=O)Nc2cc([C@H]3CC[C@@H](OC(=O)NC4(C)CC4)C3)[nH]n2)c1 [Compound 141]
17 | 49.7 | 13.1 | > 10000 |  | COc1cc(O)c(C=O)c(OCC(=O)Nc2cc([C@H]3CC[C@@H](OC(=O)N4CC(C#N)C4)C3)[nH]n2)c1 [Compound 153]
18 |  | 10.8 | 4940 | 85.9 | COc1cc(O)c(C=O)c2c1CC(C(=O)Nc1cc([C@H]3CC[C@@H](OC(=O)NN(C)C)C3)n[nH]1)C2 (single isomer, unassigned) [Compound 268, (1R,3S)-3-(3-((*)-4-formyl-5-hydroxy-7-methoxy-2,3-dihydro-1H-indene-2-carboxamido)-1H-pyrazol-5-yl)cyclopentyl 2,2-dimethylhydrazine-1-carboxylate]
19 |  | 63.3 | 735 | 7740 | COc1cc(O)c(C=O)c2c1CC(C(=O)Nc1cc([C@H]3CC[C@@H](OC(=O)N4CCCN4C)C3)[nH]n1)C2 (single isomer, unassigned) [Compound 263, (1R,3S)-3-(3-((*)-4-formyl-5-hydroxy-7-methoxy-2,3-dihydro-1H-indene-2-carboxamido)-1H-pyrazol-5-yl)cyclopentyl 2-methylpyrazolidine-1-carboxylate]
20 | 65.3 | 18.4 | > 10000 |  | COc1cc(O)c(C=O)c(OCC(=O)Nc2cc([C@H]3CC[C@@H](OC(=O)N4CC(N(C)C)C4)C3)[nH]n2)c1 [Compound 187]
21 | 113 | 6.97 | 4250 |  | COc1cc(O)c(C=O)c(OCC(=O)Nc2cc([C@H]3CC[C@@H](OC(=O)NC4(C#N)CCC4)C3)[nH]n2)c1 [Compound 148]
22 | 19.6 | 4.42 | 2800 |  | COc1cc(O)c(C=O)c(OCC(=O)Nc2cc([C@H]3CC[C@@H](OC(=O)N[C@@H]4C[C@@H]4F)C3)[nH]n2)c1 [Compound 133]
23 | 29.2 | 1.85 | 2850 |  | COc1cc(O)c(C=O)c2c1CC(C(=O)Nc1cc([C@H]3CC[C@@H](OC(=O)N(C)N(C)C)C3)n[nH]1)C2 (single isomer, unassigned) [Compound 284, (1R,3S)-3-(3-((*)-4-formyl-5-hydroxy-7-methoxy-2,3-dihydro-1H-indene-2-carboxamido)-1H-pyrazol-5-yl)cyclopentyl 1,2,2-trimethylhydrazine-1-carboxylate]
24 |  | 1.99 | 1980 | 123 | COc1cc(O)c(C=O)c2c1CC(C(=O)Nc1cc([C@H]3CC[C@@H](OC(=O)N4CCCCN4C)C3)[nH]n1)C2 (single isomer, unassigned) [Compound 266, (1R,3S)-3-(3-((*)-4-formyl-5-hydroxy-7-methoxy-2,3-dihydro-1H-indene-2-carboxamido)-1H-pyrazol-5-yl)cyclopentyl 2-methyltetrahydropyridazine-1(2H)-carboxylate]
